# Laboratory results taken from patent publication US20180325889A1, “IMMUNOREGULATORY AGENTS” (FLEXUS BIOSCIENCES, INC., priority 2014, published 2018).
# Target: T1, human IDO1/HEK293 cells (Homo sapiens, UniProt P14902)
# T1 construct: expressed in transfected cells
# Experiment: HEK Human IDO-1 cell-based IDO inhibition assay (kynurenine production)
# Conditions: HEK293 cells stably expressing human IDO1, 20 hours incubation, absorbance at 490 nm; read-out: HEK Human IDO-1 Bio Activity (IDO IC50)
# Procedure: They were cultured in medium (DMEM with 10% FBS) containing 1 mg/ml G418 for two weeks.
# The human IDO1/HEK293 cells were seeded at 10,000 cells per 50 μL per well with RPMI/phenol red free media contains 10% FBS in a 384-well black wall clear bottom tissue culture plate (Matrix Technologies LLC) 100 nL of certain concentration of compound was then added to each well using ECHO liquid handling systems. The cells were incubated for 20 hours in 37° C. incubator with 5% CO2.
# The compound treatments were stopped by adding trichloroacetic acid (Sigma-Aldrich) to a final concentration at 0.2%. The cell plate was further incubated at 50° C. for 30 minute. The equal volume supernatant (20 μL) and 0.2% (w/v) Ehrlich reagent (4-dimethylaminobenzaldehyde, Sigma-Aldrich) in glacial acetic acid were mixed in a new clear bottom 384-well plate. This plate was then incubated at room temperature for 30 minute. The absorbance at 490 nm was measured on Envision plate reader.
# T1 sequence (P14902 whole entry): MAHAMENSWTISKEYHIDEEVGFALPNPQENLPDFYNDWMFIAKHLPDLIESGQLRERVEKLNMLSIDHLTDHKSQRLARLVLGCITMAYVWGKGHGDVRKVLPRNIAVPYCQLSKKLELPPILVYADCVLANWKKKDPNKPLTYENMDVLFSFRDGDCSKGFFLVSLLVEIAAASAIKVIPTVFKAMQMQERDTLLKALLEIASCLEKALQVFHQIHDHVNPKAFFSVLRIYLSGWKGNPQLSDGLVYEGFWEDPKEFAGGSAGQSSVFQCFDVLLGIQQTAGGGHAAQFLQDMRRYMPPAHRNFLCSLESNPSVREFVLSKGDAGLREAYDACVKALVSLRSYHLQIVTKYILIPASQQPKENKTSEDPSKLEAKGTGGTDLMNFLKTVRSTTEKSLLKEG
row,Structure (SMILES),IC50
1,"C[C@@H](NC(=O)c1ccccn1)[C@H]1CC[C@@H](c2ccnc3ccc(F)cc32)CC1 [Example 67, N-((R)-1-((1s,4S)-4-(6-fluoroquinolin-4-yl)cyclohexyl)ethyl)picolinamide]",< 50 nM
2,"C[C@@H](NS(=O)(=O)c1ccccc1Cl)[C@H]1CC[C@@H](c2ccnc3ccc(F)cc32)CC1 [Example 42, 2-chloro-N-((R)-1-((1s,4S)-4-(6-fluoroquinolin-4-yl)cyclohexyl)ethyl)benzenesulfonamide]",< 2000 nM
3,"CC(NC(=O)c1ccc(Cl)cc1)C1CCC(c2ccc(C(F)(F)F)nc2)CC1 (single isomer, unassigned) [Example 217, 4-chloro-N-(1-(4-(6-(trifluoromethyl)pyridin-3-yl)cyclohexyl)ethyl)benzamide]",< 2000 nM
4,"Cc1ccc(S(=O)(=O)N[C@H](C)[C@H]2CC[C@@H](c3ccnc4ccc(F)cc43)CC2)cc1 [Example 41, N-((R)-1-((1s,4S)-4-(6-fluoroquinolin-4-yl)cyclohexyl)ethyl)-4-methylbenzenesulfonamide]",< 250 nM
5,"COc1cccc(C(=O)N[C@H](C)[C@H]2CC[C@@H](c3ccnc4ccc(F)cc43)CC2)c1 [Example 53, N-((R)-1-((1s,4S)-4-(6-fluoroquinolin-4-yl)cyclohexyl)ethyl)-3-methoxybenzamide]",< 50 nM
6,"CCOc1ccc(C(=O)N[C@H](C)[C@H]2CC[C@@H](c3ccnc4ccc(F)cc43)CC2)nc1 [Example 163, 5-Ethoxy-N—((R)-1-(cis-4-(6-fluoroquinolin-4-yl)cyclohexyl)ethyl)picolinamide]",< 50 nM
7,"Cc1cc(C2CCC(C(C)NC(=O)c3ccc(Cl)cc3)CC2)ccn1 (single isomer, unassigned) [Example 157c, 4-Chloro-N-(1-(4-(2-methylpyridin-4-yl)cyclohexyl)ethyl) Benzamide]",< 2000 nM
8,Cc1ccc(C(=O)NC(C)C2CCC(Oc3ccnc(C)c3Cl)CC2)cc1 (racemic) [Example 210],< 250 nM
9,"CC[C@@H](NC(=O)c1ccc(Cl)cc1)[C@H]1CC[C@H](c2cnc3ccccc3c2)CC1 (single isomer, unassigned) [Example 203c]",< 50 nM
10,"Cc1c(C2CCC(C(C)NC(=O)c3ccc(-c4ccccc4)cc3)CC2)ccnc1F (single isomer, unassigned) [Example 224, N-(1-(4-(2-fluoro-3-methylpyridin-4-yl)cyclohexyl)ethyl)-[1,1′-biphenyl]-4-carboxamide]",< 250 nM
11,Cc1nccc(OC2CCC(C(C)NC(=O)c3ccc(F)cc3)CC2)c1Cl (racemic) [Example 208],< 250 nM
12,"Cc1cc(C2CCC(C(C)NC(=O)c3ccc(Cl)cc3)CC2)ccn1 (single isomer, unassigned) [Example 157d, 4-Chloro-N-(1-(4-(2-methylpyridin-4-yl)cyclohexyl)ethyl) Benzamide]",< 2000 nM
13,"Cc1c(C2CCC(C(C)NC(=O)c3ccc(-c4ccccc4)cc3)CC2)ccnc1F (single isomer, unassigned) [Example 222, N-(1-(4-(2-fluoro-3-methylpyridin-4-yl)cyclohexyl)ethyl)-[1,1′-biphenyl]-4-carboxamide]",< 2000 nM
14,"CCC(NC(=O)c1ccc(Cl)cc1)C1CCC(c2cccc(C(F)F)n2)CC1 (single isomer, unassigned) [Example 231d, 4-chloro-N-(1-(4-(6-(difluoromethyl)pyridin-2-yl)cyclohexyl)propyl)benzamide]",< 2000 nM
15,"CCC(NC(=O)c1ccc(-c2ccccc2)cc1)[C@H]1CC[C@@H](c2ccnc3ccc(C(F)(F)F)cc32)CC1 (mixture of isomers) [Example 230, N-(1-((1s,4s)-4-(6-(trifluoromethyl)quinolin-4-yl)cyclohexyl)propyl)biphenyl-4-carboxamide]",< 50 nM
16,"Cc1cc(C2CCC(C(C)NC(=O)c3ccc(Cl)cc3)CC2)ccn1 (stereo not drawn) [Example 157a, 4-Chloro-N-(1-(4-(2-methylpyridin-4-yl)cyclohexyl)ethyl)benzamide]",< 250 nM

# More lines, now with the values ahead:
row,IC50,Structure (SMILES)
1,< 2000 nM,O=C(NCC1CCN(c2ccnc3ccc(F)cc23)CC1)c1ccc(Cl)cc1 [Example 88]
2,< 50 nM,"C[C@@H](NC(=O)c1ccc(Cl)c(Cl)c1)[C@H]1CC[C@@H](c2ccnc3ccc(F)cc32)CC1 [Example 59, 3,4-dichloro-N-((R)-1-((1s,4S)-4-(6-fluoroquinolin-4-yl)cyclohexyl)ethyl)benzamide]"
3,< 50 nM,"COc1nc(-c2ccc(C(=O)N[C@H](C)[C@H]3CC[C@@H](c4ccnc5ccc(F)cc54)CC3)cc2)cs1 [Example 241, N-((R)-1-((1s,4S)-4-(6-fluoroquinolin-4-yI)cyclohexyl)ethyl)-4-(2-methoxythiazol-4-yl)benzamide]"
4,< 250 nM,"O=C(Nc1ccc(Cl)cc1)[C@H]1CC[C@H](c2ccnc3ccc(F)cc32)CC1 [Example 75, (trans)-N-(4-Chlorophenyl)-4-(6-fluoroquinolin-4-yl)cyclohexanecarboxamide]"
5,< 2000 nM,"O=C(Nc1ccc(Cl)cc1F)NC1CCN(c2ccnc3ccc(F)cc23)CC1 [Example 92, 1-(4-Chloro-2-fluorophenyl)-3-(1-(6-fluoroquinolin-4-yl)piperidin-4-yl)urea]"
6,< 50 nM,"COc1ccccc1C(=O)N[C@H](C)[C@H]1CC[C@@H](c2ccnc3ccc(F)cc32)CC1 [Example 52, N-((R)-1-((1s,4S)-4-(6-fluoroquinolin-4-yl)cyclohexyl)ethyl)-2-methoxybenzamide]"
7,< 50 nM,"Cc1cnc(-c2ccc(C(=O)N[C@H](C)[C@H]3CC[C@@H](c4ccnc5ccc(F)cc54)CC3)cc2)s1 [Example 252, N-((R)-1-((1s,4S)-4-(6-fluoroquinolin-4-yl)cyclohexyl)ethyl)-4-(5-methylthiazol-2-yl)benzamide]"
8,< 50 nM,"C[C@@H](NC(=O)c1ccccc1)[C@H]1CC[C@@H](c2ccnc3ccc(F)cc32)CC1 [Example 48, N-((R)-1-((1s,4S)-4-(6-fluoroquinolin-4-yl)cyclohexyl)ethyl)benzamide]"
9,< 250 nM,"O=C(N[C@H]1CC[C@@H](c2ccnc3ccc(F)cc32)CC1)c1ccc(Cl)cc1 [Example 149, 4-chloro-N-(cis-4-(6-fluoroquinolin-4-yl)cyclohexyl)benzamide]"
10,< 250 nM,"Cc1ccc(NC(=O)NC2CCN(c3ccnc4ccc(F)cc34)CC2)cc1 [Example 91, 1-(1-(6-Fluoroquinolin-4-yl)piperidin-4-yl)-3-(p-tolyl)urea]"
11,< 50 nM,"C[C@@H](NC(=O)c1cccc(Cl)c1)[C@H]1CC[C@@H](c2ccnc3ccc(F)cc32)CC1 [Example 57, 3-chloro-N-((R)-1-((1s,4S)-4-(6-fluoroquinolin-4-yl)cyclohexyl)ethyl)benzamide]"
12,< 50 nM,"CCC(NC(=O)c1ccc(Cl)cc1)[C@H]1CC[C@H](Oc2ccnc3ccccc23)CC1 (mixture of isomers) [Example 71, 4-Chloro-N-(1-((trans)-4-(quinolin-4-yloxy)cyclohexyl)propyl)benzamide]"
13,< 50 nM,"C[C@@H](NC(=O)c1ccc(Cl)cc1)[C@H]1CC[C@@H](c2ccnc3ccc(F)cc32)CC1 [Example 47, 4-Chloro-N—((R)-1-((1 s,4S)-4-(6-fluoroquinolin-4-yl)cyclohexyl)ethyl)benzamide]"
14,< 2000 nM,"O=C(Nc1ccc(-c2ccccc2)cc1)N1CCN(c2ccnc3ccc(F)cc23)CC1 [Example 84, N-([1,1′-Biphenyl]-4-yl)-4-(6-fluoroquinolin-4-yl)piperazine-1-carboxamide]"
